According to patent publication US20250092044A1, “Kinase Inhibitors” (Incyte Corporation, priority 2023, published 2025):

Experiments:
[1] = In Vivo Pharmacokinetics (rat); design: species or system Sprague Dawley rats; details: male, Sprague Dawley, plasma, PO 3.0 mg/kg
Method: (§1) Test compounds were administered to male Sprague Dawley rats or male and female Cynomolgus monkeys intravenously or via oral gavage. For intravenous (IV) dosing, test compounds were dosed at 1 mg/kg using a formulation of 10% dimethylacetamide (DMAC), 10% propylene glycol (PG) in acidified saline via IV bolus for rat or 10 min IV infusion for monkey. For oral (PO) dosing, test compounds were dosed at 3.0 mg/kg using 5% DMAC in 0.5% methylcellulose in citrate buffer (PH˜2.5). Blood samples were collected at predose and various time points up to 24 hours postdose. All blood samples were collected using EDTA as the anticoagulant and centrifuged to obtain plasma samples. The plasma concentrations of test compounds were determined by LC-MS/MS methods. The measured plasma concentrations were used to calculate PK parameters by standard noncompartmental methods using Phoenix® WinNonlin software program (version 8.0, Pharsight Corporation) or similar software. In rats and monkeys, cassette dosing of test compounds were conducted to obtain preliminary PK parameters. In vivo pharmacokinetic experiments with male beagle dogs may be performed under the conditions described above.

CYP3A4 = CYP3A4 (Homo sapiens (Human), UniProt P08684); assay: Time Dependent Inhibition (TDI) of CYP; format: in vitro ADME; details: for TDI 3A4: Kobs, 30 min pre-incubation with NADPH; for TDI 3A4 / Kobs: human liver microsomes, 10 μM; for CYP function remaining / Kobs: time dependent inhibition of CYPs; for CYP function remaining: after pre-incubation with NADPH
Text: Inhibition of P450 enzymes can be classified as either reversible or time-dependent inhibition (TDI). This in vitro assay is designed to detect an increase in CYP inhibition as a result of biotransformation and/or bioactivation (TDI). Potential mechanisms for this include the formation of a tight-binding, quasi-irreversible inhibitory metabolite complex or the inactivation of P450 enzymes by covalent adduct formation of metabolites. While this experiment employs a 10-fold dilution to diminish metabolite concentrations and therefore effects of reversible inhibition, it is possible (but not common) that a metabolite that is an extremely potent CYP inhibitor could result in a positive result.
The results are from a cocktail of CYP specific probe substrates at 4 times their Km concentrations for CYP2C9 (diclofenac), CYP2C19 (S-mephenytoin), CYP2D6 (bufuralol) and CYP3A4 (midazolam) using human liver microsomes (HLM). The HLMs were pre-incubated with test compound(s) at a concentration 10 μM for 30 min in the presence (+N) or absence (−N) of a NADPH regenerating system, diluted 10-fold, and incubated for 8 min in the presence of the substrate cocktail with the addition of a fresh aliquot of NADPH regenerating system. A calibration curve of metabolite standards was used to quantitatively measure the enzyme activity using LC-MS/MS. In addition, incubations with known time dependent inhibitors, tienilic aicd (CYP2C9), ticlopidine (CYP2C19), paroxetine (CYP2D6), and troleandomycin (CYP3A4), used as positive controls were pre-incubated 30 min with or without a NADPH regenerating system.
The percentage of control CYP2C9, CYP2C19, CYP2D6, and CYP3A4 activity remaining following pre-incubation of the compounds with NADPH is corrected for the corresponding control vehicle activity and then calculated based on 0 minutes as 100%. A linear regression plot of the natural log of % activity remaining versus time for each isozyme is used to calculate the slope. The −slope is equal to the rate of enzyme loss, or the Kobs. […] Examples 29-30 have Kobs from 0.005-0.02 indicating a medium to low potential for time dependent inhibition of CYPs corresponding to 70-90% CYP function remaining.

[2] = In Vivo Pharmacokinetics (cynomolgus monkey); design: species or system Cynomolgus monkeys; details: both sexes, plasma
Method: as §1

[3] = In Vivo Pharmacokinetics (mouse); details: plasma, PO
[4] = PO 3.0 mg/kg, read-out: CYNO PO AUC

Sequence of CYP3A4 (P08684 whole entry): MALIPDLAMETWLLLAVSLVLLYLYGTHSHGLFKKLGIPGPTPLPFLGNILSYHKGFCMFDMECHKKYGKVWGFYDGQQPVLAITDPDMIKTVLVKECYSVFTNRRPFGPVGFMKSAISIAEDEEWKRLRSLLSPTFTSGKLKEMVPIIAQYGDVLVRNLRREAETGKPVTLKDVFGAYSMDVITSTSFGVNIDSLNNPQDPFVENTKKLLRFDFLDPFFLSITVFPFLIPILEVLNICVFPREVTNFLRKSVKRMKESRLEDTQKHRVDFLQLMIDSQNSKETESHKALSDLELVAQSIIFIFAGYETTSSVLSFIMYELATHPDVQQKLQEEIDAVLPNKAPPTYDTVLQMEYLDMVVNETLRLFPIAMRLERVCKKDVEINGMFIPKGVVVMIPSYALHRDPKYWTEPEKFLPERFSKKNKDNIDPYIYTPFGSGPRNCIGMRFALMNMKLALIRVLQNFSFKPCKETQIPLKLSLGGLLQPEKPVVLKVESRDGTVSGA

Row | SMILES | AUC [1] | TDI 3A4 (CYP3A4) | AUC [2, 4] | AUC ([2]; PO, 1 mg/kg) | AUC [3] | CYP function remaining (CYP3A4) | Kobs (CYP3A4)
1 | [2H]C([2H])([2H])N(Cc1ccc(-c2[nH]c3ncc4c(c3c2-c2ccc(OCCOC)cc2)n([C@@H]2CC[C@@H](NC(=O)OC)C2)c(=O)n4C([2H])([2H])[2H])cc1)C([2H])([2H])[2H] [Example 27, Methyl ((1R,3R)-3-(7-(4-((bis(methyl-d3)amino)methyl)phenyl)-8-(4-(2-methoxyethoxy)phenyl)-3-(methyl-d3)-2-oxo-3,6-dihydroimidazo[4,5-d]pyrrolo[2,3-b]pyridin-1(2H)-yl)cyclopentyl)carbamate] | 0.5 to 1.5 µM·h | ⋄ (≤0.005) | > 1.5 µM·h | – | – | – | –
2 | [2H]C([2H])([2H])n1c(=O)n([C@@H]2CC[C@@H](NC(=O)OC)C2)c2c3c(-c4ccc5c(cnn5C(C)C)c4)c(-c4ccc(CN(C)C)cc4)[nH]c3ncc21 [Example 26, Methyl ((1R,3R)-3-(7-(4-((dimethylamino)methyl)phenyl)-8-(1-isopropyl-1H-indazol-5-yl)-3-(methyl-d3)-2-oxo-3,6-dihydroimidazo[4,5-d]pyrrolo[2,3-b]pyridin-1(2H)-yl)cyclopentyl)carbamate] | ≤ 0.5 µM·h | ⋄ (≤0.005) | 0.5 to 1.5 µM·h | – | – | – | –
3 | [2H]C([2H])([2H])N(Cc1ccc(-c2[nH]c3ncc4c(c3c2-c2ccc3c(c2)CC(C)(C)O3)n([C@@H]2CC[C@@H](NC(=O)OC)C2)c(=O)n4C([2H])([2H])[2H])cc1)C([2H])([2H])[2H] [Example 25, Methyl ((1R,3R)-3-(7-(4-((bis(methyl-d3)amino)methyl)phenyl)-8-(2,2-dimethyl-2,3-dihydrobenzofuran-5-yl)-3-(methyl-d3)-2-oxo-3,6-dihydroimidazo[4,5-d]pyrrolo[2,3-b]pyridin-1(2H)-yl)cyclopentyl)carbamate] | 0.5 to 1.5 µM·h | ⋄ (≤0.005) | – | ≤ 0.5 µM·h | – | – | –
4 | COc1nn(C)cc1-c1[nH]c2ncc3c(c2c1-c1ccc2c(cnn2C)c1)n([C@H]1CC[C@@H](CC#N)CC1)c(=O)n3C [E, reference compound] | – | – | – | – | > 1.5 µM·h | – | –
5 | [2H]C([2H])([2H])N(Cc1ccc(-c2[nH]c3ncc4c(c3c2-c2ccc3c(c2)COC3(C)C)n([C@@H]2CC[C@@H](NC(=O)OC)C2)c(=O)n4C([2H])([2H])[2H])cc1)C([2H])([2H])[2H] [Example 29, Methyl ((1R,3R)-3-(7-(4-((bis(methyl-d3)amino)methyl)phenyl)-8-(1,1-dimethyl-1,3-dihydroisobenzofuran-5-yl)-3-(methyl-d3)-2-oxo-3,6-dihydroimidazo[4,5-d]pyrrolo[2,3-b]pyridin-1(2H)-yl)cyclopentyl)carbamate] | ≤ 0.5 µM·h | ⋄⋄ (>0.005 to ≤0.02) | – | – | – | – | –
6 | COC(=O)N[C@@H]1CC[C@@H](n2c(=O)n(C)c3cnc4[nH]c(-c5ccc(CN(C)C)cc5)c(-c5ccc(F)cc5)c4c32)C1 [Example 28, Methyl ((1R,3R)-3-(7-(4-((dimethylamino)methyl)phenyl)-8-(4-fluorophenyl)-3-methyl-2-oxo-3,6-dihydroimidazo[4,5-d]pyrrolo[2,3-b]pyridin-1(2H)-yl)cyclopentyl)carbamate] | 0.5 to 1.5 µM·h | ⋄ (≤0.005) | – | – | – | – | –
7 | [2H]C([2H])([2H])n1ncc2cc(-c3c(-c4cn(C)nc4OC)[nH]c4ncc5c(c34)n(C3CCOCC3)c(=O)n5C)ccc21 [Comparative Example B, reference compound] | > 1.5 µM·h | ⋄⋄⋄⋄ (≥0.04) | ≤ 0.5 µM·h | – | – | about 30% | around 0.04
8 | [2H]C([2H])([2H])n1c(=O)n([C@@H]2CC[C@@H](NC(=O)OC)C2)c2c3c(-c4ccc5c(c4)COC5(C)C)c(-c4ccc(C(=O)N(C)C)cc4)[nH]c3ncc21 [Example 30, methyl ((1R,3R)-3-(8-(1,1-dimethyl-1,3-dihydroisobenzofuran-5-yl)-7-(4-(dimethylcarbamoyl)phenyl)-3-(methyl-d3)-2-oxo-3,6-dihydroimidazo[4,5-d]pyrrolo[2,3-b]pyridin-1(2H)-yl)cyclopentyl)carbamate] | ≤ 0.5 µM·h | ⋄⋄ (>0.005 to ≤0.02) | – | – | – | – | –
9 | COc1nn(C)cc1-c1[nH]c2ncc3c(c2c1-c1ccc2c(cnn2C)c1)n(C1CCOCC1)c(=O)n3C [Comparative Example A, reference compound] | – | ⋄⋄⋄⋄ (≥0.04) | ≤ 0.5 µM·h | – | > 1.5 µM·h | about 30% | around 0.04
